# Data as given in PMC6691788, “Design and synthesis of phthalazine-based compounds as potent anticancer agents with potential antiangiogenic activity via VEGFR-2 inhibition” (Journal of Enzyme Inhibition and Medicinal Chemistry, 2019).
# Key:
# HOP-92 = assay: NCI 60 cell panel SRB screen; type: cell-based; settings: Homo sapiens; for activity at 10 µM: HOP-92, single dose 10 μM, read-out: percent cell growth promotion; for GI50 / IC (TGI) / CC50: HOP-92, 5 log dose; for CC50: 48 h, read-out: LC50 (the source's name)
# OVCAR-4 = assay: NCI 60 cell panel SRB screen; type: cell-based; settings: Homo sapiens; for activity at 10 µM: OVCAR-4, single dose 10 μM, read-out: percent cell growth promotion; for GI50 / IC (TGI) / CC50: OVCAR-4, 5 log dose; for CC50: 48 h, read-out: LC50 (the source's name)
# full NCI 60 cell panel = assay: NCI 60 cell panel SRB screen, whole panel; type: cell-based, human; settings: for activity at 10 µM / inhibition at 10 µM: Homo sapiens, 60 cell; for activity at 10 µM: mean over the panel, single dose 10 μM, read-out: Mean percent cell growth promotion; for cell growth inhibition, in words / inhibition at 10 µM: single dose 10 µM; for inhibition at 10 µM: read-out: cell growth inhibition against various cell lines
# Description: Aiming to evaluate the general antitumour activity of the synthesised phthalazines, the structures of the final compounds were submitted to National Cancer Institute “NCI” (www.dtp.nci.nih.gov), Bethesda, Maryland, USA. In vitro NCI anticancer screening involves two-stage process, the first stage started with the evaluation of the selected candidates against the full NCI 60 cell lines panel representing leukaemia, non-small cell lung cancer, melanoma, colon, CNS, breast, ovarian, renal and prostate cancers at a single dose of 10 µM. NCI selection is based on degree of structure variation and application of computer modelling techniques to prioritise compounds based on their ability to add diversity to the NCI small molecule compound collection.
# Eight compounds (6b, 6e, 7b, 13a, 13c, 16a, 16d and 17a) were selected by NCI for further 5 log dose screening against full NCI 60 cell panel. All the 60 cell lines, representing nine tumour subpanels (leukaemia, non-small cell lung cancer, colon cancer, CNS cancer, prostate cancer, melanoma, ovarian cancer, renal cancer and breast cancer) which were incubated at five different concentrations (0.01, 0.1, 1, 10 and 100 µM) of each of the test compounds. The outcomes were used to create log concentration vs % growth inhibition curves, then three response parameters (GI50, TGI and LC50) were calculated for each cell line, (Tables S4 and S5 in Supplementary material).
# The human tumor cell lines of the cancer-screening panel were grown in RPMI 1640 medium containing 5% fetal bovine serum and […] L-glutamine. For a typical screening experiment, cells are inoculated into 96 well microtiter plates in 100 ml at plating densities ranging from 5000 to 40,000 cells/well depending on the doubling time of individual cell lines. After cell inoculation, the microtiter plates are incubated at 37 °C, 5% CO2, 95% air and 100%
# relative humidity for 24 h prior to addition of experimental drugs. After 24 h, two plates of each cell line are fixed in situ with TCA, to represent a measurement of the cell population for each cell line at the time of drug addition (Tz). Experimental drugs are dissolved in dimethyl sulfoxide at 400-fold the desired final maximum test concentration and stored frozen prior to use. At the time of drug addition, an aliquot of frozen concentrate is thawed and diluted to twice the desired final maximum test concentration with complete medium containing […] Gentamicin. Additional four, 10-fold or ½log serial dilutions are made to provide a total of five drug concentrations plus control. Aliquots of […] of these different drug dilutions are added to the appropriate microtiter wells already containing 100 ml of medium, resulting in the required final drug concentrations. Following drug addition, the plates are incubated for an additional 48 h at 37 °C, 5% CO2, 95% air, and 100% relative humidity. For adherent cells, the assay is terminated by the addition of cold TCA. Cells are fixed in situ by the gentle addition of […] of cold 50% (w/v) TCA (final concentration,10% TCA) and incubated for 60 min at 4 °C. The supernatant is discarded, and the plates are washed five times with tap water and air dried. Sulforhodamine B (SRB) solution (100 ml) at 0.4% (w/v) in 1% acetic acid is added to each well, and plates are incubated for 10 min at room temperature. After staining, unbound dye is removed by washing five times with 1% acetic acid and the plates are air dried. Bound stain is subsequently dissolved with 10 μM trizma base, and the absorbance is read on an automated plate reader at a wavelength of 515 nm. For suspension cells, the methodology is the same except that the assay is terminated by fixing settled cells at the bottom of the wells by gently adding […] of 80% TCA (final concentration, 16% TCA). […]
# HS 578T = assay: NCI 60 cell panel SRB screen; type: cell-based; settings: Homo sapiens; for activity at 10 µM / GI50 / IC (TGI): Hs-578T; for activity at 10 µM: read-out: percent cell growth promotion; for IC (TGI): read-out: TGI; for CC50: HS 578T, 5 log dose, 48 h, read-out: LC50 (the source's name)
# NCI-H522 = assay: NCI 60 cell panel SRB screen; type: cell-based; settings: Homo sapiens; for activity at 10 µM: NCI-H522, single dose 10 μM, read-out: percent cell growth promotion; for GI50 / IC (TGI) / CC50: NCI-H522, 5 log dose; for CC50: 48 h, read-out: LC50 (the source's name)
# SW-620 = assay: NCI 60 cell panel SRB screen; type: cell-based; settings: Homo sapiens; for activity at 10 µM: SW-620, single dose 10 μM, read-out: percent cell growth promotion; for GI50 / IC (TGI) / CC50: SW-620, 5 log dose; for CC50: 48 h, read-out: LC50 (the source's name)
# SN12C = assay: NCI 60 cell panel SRB screen; type: cell-based; settings: Homo sapiens; for activity at 10 µM: single dose 10 μM, read-out: percent cell growth promotion; for GI50 / IC (TGI) / CC50: 5 log dose; for CC50: 48 h, read-out: LC50 (the source's name)
# MDA-MB 231/ATCC = assay: NCI 60 cell panel SRB screen; type: cell-based; settings: Homo sapiens; for activity at 10 µM: MDA-MB-231, read-out: percent cell growth promotion; for GI50 / CC50: MDA-MB-231; for IC (TGI): MDA-MB-231, read-out: TGI; for CC50: MDA-MDA 231/ATCC, 5 log dose, 48 h, read-out: LC50 (the source's name)
# DU-145 = assay: NCI 60 cell panel SRB screen; type: cell-based; settings: Homo sapiens; for activity at 10 µM: DU-145, single dose 10 μM, read-out: percent cell growth promotion; for GI50 / IC (TGI) / CC50: DU-145, 5 log dose; for CC50: 48 h, read-out: LC50 (the source's name)
# CAKI-1 = assay: NCI 60 cell panel SRB screen; type: cell-based, human; settings: for activity at 10 µM / GI50 / CC50: Homo sapiens; for activity at 10 µM: CAKI-1, single dose 10 μM, read-out: percent cell growth promotion; for TGI / GI50 / CC50: CAKI-1, 5 log dose; for CC50: 48 h, read-out: LC50 (the source's name)
# MALME-3M = assay: NCI 60 cell panel SRB screen; type: cell-based; settings: Homo sapiens; for activity at 10 µM / GI50 / IC (TGI): Malme-3M; for activity at 10 µM: read-out: percent cell growth promotion; for IC (TGI): read-out: TGI; for CC50: MALME-3M, 5 log dose, 48 h, read-out: LC50 (the source's name)
# MDA-MB-435 = assay: NCI 60 cell panel SRB screen; type: cell-based; settings: Homo sapiens; for activity at 10 µM: MDA-MB-435, read-out: percent cell growth promotion; for GI50: MDA-MB-435; for IC (TGI): MDA-MB-435, read-out: TGI; for CC50: MDA-MB-435, 5 log dose, 48 h, read-out: LC50 (the source's name)
smiles,measurement,setting,value
"O=C(Nc1ccc(Nc2nncc3ccccc23)cc1)c1ccc(Cl)cc1 [Compound 5b, 4-Chloro-N-(4-(phthalazin-1-ylamino)phenyl)benzamide]",activity at 10 µM,HOP-92,97.5%
same,activity at 10 µM,OVCAR-4,106%
same,activity at 10 µM,full NCI 60 cell panel,101%
same,"cell growth inhibition, in words",full NCI 60 cell panel,"Neither of the biarylamides (5b, and 5d) nor the piperazines (8a, 8d, 8f, 8g, 8h and 8i) showed any significant cell line growth inhibition"
same,activity at 10 µM,HS 578T,105%
same,activity at 10 µM,NCI-H522,96.8%
same,activity at 10 µM,SW-620,102%
same,activity at 10 µM,SN12C,100%
same,activity at 10 µM,MDA-MB 231/ATCC,93.3%
same,activity at 10 µM,DU-145,114%
same,activity at 10 µM,CAKI-1,94.6%
same,activity at 10 µM,MALME-3M,99.6%
same,activity at 10 µM,MDA-MB-435,103%
"Cc1nnc(Nc2ccc(NC(=O)c3ccc(Cl)cc3)cc2)c2ccccc12 [Compound 5d, 4-Chloro-N-(4–(4-methylphthalazin-1-ylamino)phenyl)benzamide]",activity at 10 µM,HOP-92,55.4%
same,activity at 10 µM,OVCAR-4,105%
same,activity at 10 µM,full NCI 60 cell panel,93%
same,"cell growth inhibition, in words",full NCI 60 cell panel,"Neither of the biarylamides (5b, and 5d) nor the piperazines (8a, 8d, 8f, 8g, 8h and 8i) showed any significant cell line growth inhibition"
same,activity at 10 µM,HS 578T,89.7%
same,activity at 10 µM,NCI-H522,94.7%
same,activity at 10 µM,SW-620,92.7%
same,activity at 10 µM,SN12C,91%
same,activity at 10 µM,MDA-MB 231/ATCC,73%
same,activity at 10 µM,DU-145,102%
same,activity at 10 µM,CAKI-1,86.3%
same,activity at 10 µM,MALME-3M,99%
same,activity at 10 µM,MDA-MB-435,102%
"O=C(Nc1ccc(Cl)cc1)Nc1ccc(Nc2nncc3ccccc23)cc1 [Compound 6b, 1–(4-Chlorophenyl)-3–(4-(phthalazin-1-ylamino)phenyl)urea]",GI50,HOP-92,2.55 µM
same,IC (TGI),HOP-92,7.26 µM
same,CC50,HOP-92,> 100 µM
same,activity at 10 µM,HOP-92,38.7%
same,GI50,OVCAR-4,1.97 µM
same,IC (TGI),OVCAR-4,8.17 µM
same,CC50,OVCAR-4,> 100 µM
same,activity at 10 µM,OVCAR-4,11.1%
same,activity at 10 µM,full NCI 60 cell panel,25%
same,inhibition at 10 µM,full NCI 60 cell panel,> 90%
same,GI50,HS 578T,3.83 µM
same,IC (TGI),HS 578T,27.7 µM
same,activity at 10 µM,HS 578T,58.3%
same,CC50,HS 578T,> 100 µM
same,GI50,NCI-H522,1.32 µM
same,IC (TGI),NCI-H522,8.81 µM
same,CC50,NCI-H522,43.2 µM
same,activity at 10 µM,NCI-H522,11.9%
same,GI50,SW-620,3.16 µM
same,IC (TGI),SW-620,18.6 µM
same,CC50,SW-620,81.8 µM
same,activity at 10 µM,SW-620,27%
same,GI50,SN12C,4.58 µM
same,IC (TGI),SN12C,37.2 µM
same,CC50,SN12C,> 100 µM
same,activity at 10 µM,SN12C,26.4%
same,GI50,MDA-MB 231/ATCC,3.4 µM
same,IC (TGI),MDA-MB 231/ATCC,15.9 µM
same,activity at 10 µM,MDA-MB 231/ATCC,36.6%
same,CC50,MDA-MB 231/ATCC,64.9 µM
same,GI50,DU-145,3.17 µM
same,IC (TGI),DU-145,26.9 µM
same,CC50,DU-145,> 100 µM
same,activity at 10 µM,DU-145,33.7%
same,TGI,CAKI-1,12.5 µM
same,GI50,CAKI-1,1.97 µM
same,CC50,CAKI-1,88 µM
same,activity at 10 µM,CAKI-1,20.6%
same,GI50,MALME-3M,3.94 µM
same,IC (TGI),MALME-3M,16.5 µM
same,activity at 10 µM,MALME-3M,38.5%
same,CC50,MALME-3M,50 µM
same,GI50,MDA-MB-435,2.14 µM
same,IC (TGI),MDA-MB-435,9.42 µM
same,activity at 10 µM,MDA-MB-435,13.7%
same,CC50,MDA-MB-435,30.9 µM
"Cc1nnc(Nc2ccc(NC(=O)Nc3ccc(Cl)cc3)cc2)c2ccccc12 [Compound 6e, 1–(4-Chlorophenyl)-3–(4-(4-methylphthalazin-1-ylamino)phenyl)urea]",GI50,HOP-92,2.56 µM
same,IC (TGI),HOP-92,6.6 µM
same,CC50,HOP-92,42 µM
same,activity at 10 µM,HOP-92,4.62%
same,GI50,OVCAR-4,2.79 µM
same,IC (TGI),OVCAR-4,8.36 µM
same,CC50,OVCAR-4,58.2 µM
same,activity at 10 µM,OVCAR-4,42.6%
same,activity at 10 µM,full NCI 60 cell panel,23.2%
same,inhibition at 10 µM,full NCI 60 cell panel,> 90%
same,"cell growth inhibition, in words",full NCI 60 cell panel,"lethal effect (above 100% inhibition) against several leukaemia, melanoma, renal cancer cell lines"
same,GI50,HS 578T,2.52 µM
same,IC (TGI),HS 578T,6.4 µM
same,activity at 10 µM,HS 578T,3.43%
same,CC50,HS 578T,> 100 µM
same,GI50,NCI-H522,1.84 µM
same,IC (TGI),NCI-H522,3.88 µM
same,CC50,NCI-H522,8.21 µM
same,activity at 10 µM,NCI-H522,30.3%
same,GI50,SW-620,2.15 µM
same,IC (TGI),SW-620,4.76 µM
same,CC50,SW-620,11.9 µM
same,activity at 10 µM,SW-620,20.3%
same,GI50,SN12C,2.86 µM
same,IC (TGI),SN12C,9.41 µM
same,CC50,SN12C,60.1 µM
same,activity at 10 µM,SN12C,60.1%
same,GI50,MDA-MB 231/ATCC,2.38 µM
same,IC (TGI),MDA-MB 231/ATCC,5.94 µM
same,activity at 10 µM,MDA-MB 231/ATCC,23.1%
same,CC50,MDA-MB 231/ATCC,33.9 µM
same,GI50,DU-145,4.77 µM
same,IC (TGI),DU-145,19.5 µM
same,CC50,DU-145,66.9 µM
same,activity at 10 µM,DU-145,57.8%
same,TGI,CAKI-1,12.8 µM
same,GI50,CAKI-1,3.49 µM
same,CC50,CAKI-1,43.6 µM
same,activity at 10 µM,CAKI-1,33.9%
same,GI50,MALME-3M,2.17 µM
same,IC (TGI),MALME-3M,4.79 µM
same,activity at 10 µM,MALME-3M,-9.9%
same,CC50,MALME-3M,20 µM
same,GI50,MDA-MB-435,1.73 µM
same,IC (TGI),MDA-MB-435,3.43 µM
same,activity at 10 µM,MDA-MB-435,-40%
same,CC50,MDA-MB-435,6.81 µM
